Source: ChEMBL document CHEMBL4270532, “Molecular dynamics simulations of viral neuraminidase inhibitors with the human neuraminidase enzymes: Insights into isoenzyme selectivity” (Bioorg Med Chem, 2018)
pIC50: −log10 of the molar value.

Columns and labels:
Sialidase-4 [1] = target: T1, Sialidase-4 (Homo sapiens, UniProt Q8WWR8); assay: Inhibition of MBP-fused recombinant human neuraminidase 4 expressed in Escherichia coli using 4MU-NANA as substrate preincubated for 15 mins followed by substrate addition measured every 1 min for 30 mins by fluorescence analysis
T1 sequence (Q8WWR8 whole entry): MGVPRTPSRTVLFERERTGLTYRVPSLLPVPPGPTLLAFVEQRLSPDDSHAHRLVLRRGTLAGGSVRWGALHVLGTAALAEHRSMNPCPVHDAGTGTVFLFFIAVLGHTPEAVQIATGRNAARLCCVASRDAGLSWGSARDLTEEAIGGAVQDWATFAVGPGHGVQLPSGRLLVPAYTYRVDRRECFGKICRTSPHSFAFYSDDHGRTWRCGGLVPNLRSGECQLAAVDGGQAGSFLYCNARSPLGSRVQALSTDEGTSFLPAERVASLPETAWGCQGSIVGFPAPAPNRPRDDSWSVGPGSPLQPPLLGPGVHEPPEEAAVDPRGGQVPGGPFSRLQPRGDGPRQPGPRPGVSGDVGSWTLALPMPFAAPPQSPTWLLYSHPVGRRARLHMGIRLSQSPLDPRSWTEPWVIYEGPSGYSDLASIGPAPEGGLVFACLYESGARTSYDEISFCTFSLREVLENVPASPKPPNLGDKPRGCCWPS

Sialidase-3 [2] = target: T2, Sialidase-3 (Homo sapiens, UniProt Q9UQ49); assay: Inhibition of MBP-fused recombinant human neuraminidase 3 expressed in Escherichia coli using 4MU-NANA as substrate preincubated for 15 mins followed by substrate addition measured every 1 min for 30 mins by fluorescence analysis
T2 sequence (Q9UQ49 whole entry): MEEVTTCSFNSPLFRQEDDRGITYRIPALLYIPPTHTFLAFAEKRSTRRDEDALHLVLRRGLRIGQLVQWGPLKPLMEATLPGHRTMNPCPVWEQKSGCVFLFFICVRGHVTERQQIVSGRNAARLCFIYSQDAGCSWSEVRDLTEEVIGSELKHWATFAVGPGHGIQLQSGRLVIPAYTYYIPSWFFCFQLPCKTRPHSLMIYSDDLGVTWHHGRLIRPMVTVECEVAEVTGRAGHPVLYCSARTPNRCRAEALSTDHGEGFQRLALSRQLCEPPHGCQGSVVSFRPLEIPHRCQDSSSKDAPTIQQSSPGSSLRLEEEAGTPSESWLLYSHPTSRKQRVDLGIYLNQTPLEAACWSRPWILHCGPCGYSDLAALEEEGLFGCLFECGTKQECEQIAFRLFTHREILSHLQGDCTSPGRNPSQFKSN

Sialidase-1 [3] = target: T3, Sialidase-1 (Homo sapiens, UniProt Q99519); assay: Inhibition of recombinant His6-tagged human neuraminidase 1 expressed in HEK293 cells using 4MU-NANA as substrate preincubated for 15 mins followed by substrate addition measured every 1 min for 30 mins by fluorescence analysis
Sialidase-4 [4] = target: T1, Sialidase-4; assay: Inhibition of MBP-fused recombinant human neuraminidase 4 expressed in Escherichia coli using 4MU-NANA as substrate preincubated for 15 mins followed by substrate addition measured after 30 mins by fluorescence analysis
Sialidase-3 [5] = target: T2, Sialidase-3; assay: Inhibition of MBP-fused recombinant human neuraminidase 3 expressed in Escherichia coli using 4MU-NANA as substrate preincubated for 15 mins followed by substrate addition measured after 30 mins by fluorescence analysis
Sialidase-1 [6] = target: T3, Sialidase-1; assay: Inhibition of recombinant His6-tagged human neuraminidase 1 expressed in HEK293 cells using 4MU-NANA as substrate preincubated for 15 mins followed by substrate addition measured after 30 mins by fluorescence analysis

Ki (Sialidase-4 [1])	Ki (Sialidase-3 [2])	Ki (Sialidase-1 [3])	pIC50 (Sialidase-4 [4])	pIC50 (Sialidase-3 [5])	pIC50 (Sialidase-1 [6])	SMILES
Not Active	Not Active	Not Active	< 3.30	< 3.30	< 3.30	CC(=O)N[C@H]1[C@H]([C@H](O)[C@H](O)CO)OC(O)(C(=O)O)C[C@@H]1O (some centres undefined)
Not Active	Not Active	Not Active	< 3.30	< 3.30	< 3.30	CCOC(=O)C1=C[C@@H](OC(CC)CC)[C@H](NC(C)=O)[C@@H](N)C1 [OSELTAMIVIR]
Not Active	Not Active	Not Active	< 3.30	< 3.30	< 3.30	CCC(CC)[C@H](NC(C)=O)[C@@H]1[C@H](O)[C@@H](C(=O)O)C[C@H]1NC(=N)N [PERAMIVIR ANHYDROUS]
–	–	Not Active	–	–	–	CC(=O)N[C@H]1[C@H]([C@H](O)[C@H](O)CO)OC(C(=O)O)=C[C@@H]1NC(=N)N [ZANAMIVIR]
